# Laboratory results taken from article PMC6201103, “The Small-Compound Inhibitor K22 Displays Broad Antiviral Activity against Different Members of the Family Flaviviridae and Offers Potential as a Panviral Inhibitor” (Antimicrobial Agents and Chemotherapy, 2018).
# Values joined by “and” are separate entries in the source; they are usually repeats but may differ in a detail not shown here. Equal values may be shown once. Read-outs that look alike come from different tables or passages of the source.
# Assays:
# Vero B4 cells = assay: Proliferation/viability, MultiTox-Fluor multiplex cytotoxicity assay on Vero B4 cells; assay type: cell-based
# Protocol: (§1) To evaluate the effect of K22 on cell viability, proliferation, as well as cytotoxicity, uninfected cells were treated with the compound at the concentrations specified above or with DMSO as a control. To determine the effect of K22 on cell viability, Vero cells were collected and labeled with the Fixable Aqua dead cell stain kit (Thermo Fisher Scientific) for 30 min on ice, before the cells were washed with cold PBS and fixed for flow cytometry analysis. As a positive control for cell death, cells were heated at 65°C for 30 min. The mean fluorescence intensity (MFI) was determined by flow cytometry analysis on a FACSCanto II flow cytometer (BD Bioscience) and evaluated using FlowJo (v.9.1) software. […] The compound was added at the concentrations indicated above, and cytotoxicity was determined at 24 and/or 48 h p.i. by determination of the absorbance at 490 nm using a plate reader (VersaMax [Molecular Devices, Wokingham, UK] or an EnSpire 2300 multilabel reader [PerkinElmer, Schwerzenbach, Switzerland]). Cell proliferation following compound treatment was determined using a MultiTox-Fluor multiplex cytotoxicity assay (catalog number G9200; Promega) according to the manufacturer's recommendations. The readout was performed using a multilabel reader (EnSpire 2300 multilabel reader; PerkinElmer) upon excitation at ∼400 nm and emission at ∼505 nm. […]
# WESSV = assay: microbe, parasite or virus in culture; assay type: cell-based, Wesselsbron virus; conditions: for IC50: Wesselsbron virus, Vero, read-out: IC50, WESSV infectivity
# Vero cells = assay: Cytotoxicity on Vero cells (Fixable Aqua dead cell stain flow cytometry; CytoTox 96 assay); assay type: cell-based; conditions: concentrations of Fig. 1c, confirmed with commercial kit
# Protocol: as §1
# ZIKV [1] = assay: Time-of-addition assay, ZIKV in Vero B4 cells; assay type: cell-based, Zika virus; conditions: K22 added pre- or postinfection, supernatant at 24 h p.i.
# YFV = assay: microbe, parasite or virus in culture; assay type: cell-based, yellow fever virus; conditions: for IC50: Yellow fever virus, Vero, read-out: IC50, YFV infectivity
# ZIKV [2] = assay: Immunofluorescence analysis of E protein and dsRNA in ZIKV-infected Vero cells; conditions: 30 μM K22, 48 h p.i.
# USUV = assay: microbe, parasite or virus in culture; assay type: cell-based, Usutu virus; conditions: for IC50: Usutu virus, Vero, read-out: IC50, USUV infectivity
# HCV = HCV replication, JcR-2a Renilla luciferase reporter virus in Huh7-Lunet-N-hCD81-FLuc cells; assay type: cell-based, hepatitis C virus
# JEV = JEV infectivity (TCID50 titration) and replication in K22-treated Vero cells; assay type: cell-based, Japanese encephalitis virus; conditions: for IC50: Japanese encephalitis virus, MOI 0.1 TCID50/cell
# Protocol: To test the effect of K22 on flavivirus, hepacivirus, and pestivirus infection, 8 × 10^4 Vero cells were seeded in 12-well dishes (flaviviruses), 5 × 10^4 Huh7-Lunet-N-hCD81-FLuc cells were seeded in 12-well dishes (hepacivirus), or 1 × 10^4 BT cells were seeded in 96-well dishes (pestivirus). At 1 day postseeding, cells were treated with different concentrations of K22 (diluted in DMSO at the concentrations indicated below) for 3 to 4 h and preincubated in 5% CO2 at 37°C. Cells were infected with different viruses at a multiplicity of infection (MOI) of 0.1 TCID50/cell for 1 h at 37°C. For HCV infection, cells were infected with JcR-2a or HCV Jc1 for 3 h at 37°C. Afterwards, cells were washed with prewarmed phosphate-buffered saline (PBS) solution, before cell culture medium supplemented with K22 or the DMSO control at each concentration was added, and incubated at 37°C in a 5% CO2 atmosphere. At 24 h and/or 48 h postinfection (p.i.), supernatants and cells were collected for further analysis.
# Flavivirus replication and the cytopathic effect (CPE) were evaluated from collected cells. Cells in suspension were first labeled with the Fixable Aqua dead cell stain kit (Thermo Fisher Scientific, Waltham, MA, USA) for 30 min on ice, followed by washing with cold PBS. […] After washing, anti-mouse IgG2a conjugated with Alexa Fluor 647 (Thermo Fisher Scientific) was added for 15 min, and the cells were acquired on a FACSCanto II flow cytometer (BD Biosciences, Allschwil, Switzerland). FlowJo (v.9.1) software (TreeStar, Inc., Ashland, OR, USA) was used for analysis. Cell debris and doublets were excluded by electronic gating in forward/side scatter plots. Cell culture supernatants were collected at 24 and 48 h p.i., and the flavivirus titers in Vero cells were determined using the immunoperoxidase monolayer assay (IPMA). For that, supernatants 10-fold diluted in cell culture medium supplemented with 2% (vol/vol) FBS were incubated on Vero cells for 72 h at 37°C in a 5% CO2 atmosphere. At that point, cells were fixed in 4% (wt/vol) PFA for 10 min at room temperature, washed, and immunolabeled with anti-flavivirus group antigen antibody 4G2 diluted in 0.3% (wt/vol) saponin in PBS for 30 min at 37°C and then washed and incubated for another 30 min at 37°C with goat anti-mouse IgG conjugated with horseradish peroxidase (Dako), followed by incubation for 10 to 30 min at room temperature with 3-amino-9-ethylcarbazole (AEC) substrate (Sigma-Aldrich).
# BVDV SuwaNcp = BVDV SuwaNcp replication, qRT-PCR of viral RNA in BT cells; assay type: cell-based, bovine viral diarrhea virus
# BVDV SuwaCp [3] = assay: microbe, parasite or virus in culture; assay type: cell-based, bovine viral diarrhea virus
# BVDV SuwaCp [4] = assay: BVDV SuwaCp replication, qRT-PCR of viral RNA in BT cells; assay type: cell-based, bovine viral diarrhea virus
# [5] = Bovine viral diarrhea virus isolates and strains, 48 h
compound,measurement,setting,value
"O=C(N/C(=C\c1ccccc1)C(=O)N1CCC(O)(c2ccc(Br)cc2)CC1)c1ccccc1 [K22, (Z)-N-{3-[4-(4-bromophenyl)-4-hydroxypiperidin-1-yl]-3-oxo-1-phenylprop-1-en-2-yl} benzamide]",K22 concentrations that mildly affected cell proliferation,Vero B4 cells,≥ 30 µM
same,"SI (selectivity index), WESSV",WESSV,15.2 and 12.5
same,K22 concentrations necessary to significantly inhibit WESSV,WESSV; Vero cells,≥ 20 µM
same,IC50,WESSV; 24 h,5.9 µM
same,IC50,WESSV; 48 h,6.8 µM
same,cytotoxic effect of K22,Vero cells,no cytotoxic effect
same,antiviral activity by time of addition,ZIKV [1],displayed antiviral activity when added at several hours postinfection
same,K22 concentrations reducing YFV replication and infectivity,YFV,≥ 5 µM
same,"SI (selectivity index), YFV",YFV,24.3 and 36.7
same,IC50,YFV; 24 h,3.7 µM
same,IC50,YFV; 48 h,2.3 µM
same,viral E protein and dsRNA markers of infection,ZIKV [2],severely reduced
same,IC50,USUV; 24 h,9 µM
same,IC50,USUV; 48 h,~10 µM
same,K22 concentrations necessary to significantly inhibit USUV,USUV; Vero cells,≥ 20 µM
same,"CC50 relative to IC50 (replication), HCV",HCV; CC50 21.3 μM vs IC50 7.0 μM,3 fold
same,IC50,"HCV; Hepatitis C virus, 48 h, read-out: IC50 for replication, HCV",7 µM
same,K22 concentrations significantly reducing HCV replication as well as infectivity,HCV; {},≥ 20 µM
same,"SI (selectivity index), JEV",JEV; 24 h p.i.,193.9
same,"SI (selectivity index), JEV",JEV; 48 h p.i.,19.1
same,IC50,"JEV; 24 h p.i., Vero cells",0.5 µM
same,IC50,"JEV; 48 h p.i., Vero cells",4.4 µM
same,K22 concentrations reducing JEV replication and infectivity,"JEV; dose-dependent, Vero cells",≥ 5 µM
same,IC50,BVDV SuwaNcp; [5],34.7 µM
same,K22 concentrations necessary to significantly reduce viral replication of BVDV SuwaNcp,"BVDV SuwaNcp; qRT-PCR, BT cells",≥ 40 µM
same,"SI (selectivity index), BVDV SuwaCp",BVDV SuwaCp [3],>24.6
same,IC50,"BVDV SuwaCp [3]; Bovine viral diarrhea virus isolates and strains, read-out: IC50 for infectivity, BVDV SuwaCp",14.2 µM
same,IC50,BVDV SuwaCp [4]; [5],15.5 µM
same,K22 concentrations necessary to significantly reduce viral replication of BVDV SuwaCp,"BVDV SuwaCp [4]; qRT-PCR, BT cells",≥ 20 µM
